Columns and labels:
[1] = biological target: Serine/threonine-protein kinase 32A (Homo sapiens) (UniProt Q8WU08); assay: Inhibition of T7 bacteriophage fused human YANK1 at 10 uM by KINOMEscan analysis relative to control
[2] = biological target: Tyrosine-protein kinase SYK (Homo sapiens) (UniProt P43405); assay: Inhibition of T7 bacteriophage fused human SYK at 10 uM by KINOMEscan analysis relative to control
[3] = biological target: Dual specificity testis-specific protein kinase 1 (Homo sapiens) (UniProt Q15569); assay: Inhibition of T7 bacteriophage fused human TESK1 at 10 uM by KINOMEscan analysis relative to control
[4] = biological target: Angiopoietin-1 receptor (Homo sapiens) (UniProt Q02763); assay: Inhibition of T7 bacteriophage fused human TIE2 at 10 uM by KINOMEscan analysis relative to control
[5] = biological target: Non-receptor tyrosine-protein kinase TYK2 (Homo sapiens) (UniProt P29597); assay: Inhibition of T7 bacteriophage fused human TYK2 JH2 pseudokinase domain at 10 uM by KINOMEscan analysis relative to control
[6] = biological target: Wee1-like protein kinase 2 (Homo sapiens) (UniProt P0C1S8); assay: Inhibition of T7 bacteriophage fused human WEE2 at 10 uM by KINOMEscan analysis relative to control
[7] = biological target: T1, Mitogen-activated protein kinase kinase kinase 7 (Homo sapiens) (UniProt O43318); assay: Inhibition of T7 bacteriophage fused human TAK1 at 10 uM by KINOMEscan analysis relative to control
T1 sequence (whole entry): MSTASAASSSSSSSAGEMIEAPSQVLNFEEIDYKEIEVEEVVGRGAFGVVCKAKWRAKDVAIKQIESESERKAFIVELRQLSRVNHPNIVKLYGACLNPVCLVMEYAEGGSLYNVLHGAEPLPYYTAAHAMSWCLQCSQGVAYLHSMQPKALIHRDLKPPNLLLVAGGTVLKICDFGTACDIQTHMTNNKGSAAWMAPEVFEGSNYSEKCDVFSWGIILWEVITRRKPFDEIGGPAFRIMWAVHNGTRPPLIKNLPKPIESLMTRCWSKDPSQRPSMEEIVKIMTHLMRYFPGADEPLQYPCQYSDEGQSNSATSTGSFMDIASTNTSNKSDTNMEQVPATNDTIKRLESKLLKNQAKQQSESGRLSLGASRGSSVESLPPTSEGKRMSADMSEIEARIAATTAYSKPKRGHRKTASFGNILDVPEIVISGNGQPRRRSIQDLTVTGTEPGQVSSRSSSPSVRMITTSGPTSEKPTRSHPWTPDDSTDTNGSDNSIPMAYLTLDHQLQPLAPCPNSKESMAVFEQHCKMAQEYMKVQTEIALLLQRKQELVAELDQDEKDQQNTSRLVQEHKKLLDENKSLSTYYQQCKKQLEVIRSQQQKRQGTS

[8] = biological target: Serine/threonine-protein kinase 32C (Homo sapiens) (UniProt Q86UX6); assay: Inhibition of T7 bacteriophage fused human YANK3 at 10 uM by KINOMEscan analysis relative to control
[9] = biological target: Ribosomal protein S6 kinase alpha-6 (Homo sapiens) (UniProt Q9UK32); assay: Inhibition of T7 bacteriophage fused human N-terminal RSK4 Kinase domain-1 at 10 uM by KINOMEscan analysis relative to control
[10] = biological target: Vascular endothelial growth factor receptor 2 (Homo sapiens) (UniProt P35968); assay: Inhibition of T7 bacteriophage fused human VEGFR2 at 10 uM by KINOMEscan analysis relative to control
[11] = biological target: STE20-like serine/threonine-protein kinase (Homo sapiens) (UniProt Q9H2G2); assay: Inhibition of T7 bacteriophage fused human SLK at 10 uM by KINOMEscan analysis relative to control
[12] = biological target: STE20/SPS1-related proline-alanine-rich protein kinase (Homo sapiens) (UniProt Q9UEW8); assay: Inhibition of T7 bacteriophage fused human STK39 at 10 uM by KINOMEscan analysis relative to control
[13] = biological target: T2, Serine/threonine-protein kinase ULK1 (Homo sapiens) (UniProt O75385); assay: Inhibition of T7 bacteriophage fused human ULK1 at 10 uM by KINOMEscan analysis relative to control
T2 sequence (whole entry): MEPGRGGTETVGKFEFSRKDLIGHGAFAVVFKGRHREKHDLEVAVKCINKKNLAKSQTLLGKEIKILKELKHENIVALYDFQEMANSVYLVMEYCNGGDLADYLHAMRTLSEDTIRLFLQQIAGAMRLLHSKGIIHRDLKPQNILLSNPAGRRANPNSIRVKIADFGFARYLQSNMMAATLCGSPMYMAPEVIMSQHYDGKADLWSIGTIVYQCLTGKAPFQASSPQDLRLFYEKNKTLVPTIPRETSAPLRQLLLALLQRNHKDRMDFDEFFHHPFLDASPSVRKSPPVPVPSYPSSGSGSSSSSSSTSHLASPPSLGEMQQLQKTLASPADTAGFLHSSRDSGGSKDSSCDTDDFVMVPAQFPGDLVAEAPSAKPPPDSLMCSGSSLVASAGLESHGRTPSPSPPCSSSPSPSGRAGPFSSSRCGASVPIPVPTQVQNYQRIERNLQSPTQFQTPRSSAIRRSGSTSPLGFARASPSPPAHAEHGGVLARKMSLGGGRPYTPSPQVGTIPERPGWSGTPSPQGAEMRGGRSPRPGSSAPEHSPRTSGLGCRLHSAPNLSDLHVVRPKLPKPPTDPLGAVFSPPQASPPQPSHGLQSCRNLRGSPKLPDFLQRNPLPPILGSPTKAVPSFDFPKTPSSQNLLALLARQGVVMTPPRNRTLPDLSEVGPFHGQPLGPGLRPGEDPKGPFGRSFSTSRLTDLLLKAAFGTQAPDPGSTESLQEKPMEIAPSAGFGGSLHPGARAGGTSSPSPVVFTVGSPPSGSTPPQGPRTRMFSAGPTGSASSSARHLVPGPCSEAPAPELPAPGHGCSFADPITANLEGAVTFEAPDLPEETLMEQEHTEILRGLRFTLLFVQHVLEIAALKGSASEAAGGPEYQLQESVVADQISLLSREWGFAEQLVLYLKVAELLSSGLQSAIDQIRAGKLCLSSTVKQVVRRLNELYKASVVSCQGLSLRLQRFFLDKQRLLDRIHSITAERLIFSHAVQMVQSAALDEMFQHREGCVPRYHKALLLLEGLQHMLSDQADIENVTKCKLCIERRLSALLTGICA

[14] = biological target: Ribosomal protein S6 kinase beta-1 (Homo sapiens) (UniProt P23443); assay: Inhibition of T7 bacteriophage fused human S6K1 at 10 uM by KINOMEscan analysis relative to control

Measured: inhibition

Sequence of Dual specificity testis-specific protein kinase 1 (Homo sapiens) (Q15569 whole entry, looked up, the tested form may be a part): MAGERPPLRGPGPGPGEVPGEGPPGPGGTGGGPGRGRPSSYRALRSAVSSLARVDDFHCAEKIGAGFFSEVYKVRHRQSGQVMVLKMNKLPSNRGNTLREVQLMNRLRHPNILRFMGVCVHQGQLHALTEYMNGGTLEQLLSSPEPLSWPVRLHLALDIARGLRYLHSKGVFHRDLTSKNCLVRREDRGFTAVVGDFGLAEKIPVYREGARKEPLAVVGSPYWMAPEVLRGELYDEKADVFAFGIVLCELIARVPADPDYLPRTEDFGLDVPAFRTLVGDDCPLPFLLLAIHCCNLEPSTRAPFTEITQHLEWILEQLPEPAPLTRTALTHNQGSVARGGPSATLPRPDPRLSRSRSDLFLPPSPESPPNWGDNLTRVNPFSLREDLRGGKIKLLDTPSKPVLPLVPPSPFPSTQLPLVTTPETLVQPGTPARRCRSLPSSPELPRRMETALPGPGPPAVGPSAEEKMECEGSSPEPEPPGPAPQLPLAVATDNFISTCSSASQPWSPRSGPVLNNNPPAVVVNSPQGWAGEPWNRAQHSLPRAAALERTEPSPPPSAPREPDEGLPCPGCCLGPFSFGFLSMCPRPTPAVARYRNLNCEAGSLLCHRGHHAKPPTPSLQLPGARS
Sequence of STE20-like serine/threonine-protein kinase (Homo sapiens) (Q9H2G2 whole entry, looked up, the tested form may be a part): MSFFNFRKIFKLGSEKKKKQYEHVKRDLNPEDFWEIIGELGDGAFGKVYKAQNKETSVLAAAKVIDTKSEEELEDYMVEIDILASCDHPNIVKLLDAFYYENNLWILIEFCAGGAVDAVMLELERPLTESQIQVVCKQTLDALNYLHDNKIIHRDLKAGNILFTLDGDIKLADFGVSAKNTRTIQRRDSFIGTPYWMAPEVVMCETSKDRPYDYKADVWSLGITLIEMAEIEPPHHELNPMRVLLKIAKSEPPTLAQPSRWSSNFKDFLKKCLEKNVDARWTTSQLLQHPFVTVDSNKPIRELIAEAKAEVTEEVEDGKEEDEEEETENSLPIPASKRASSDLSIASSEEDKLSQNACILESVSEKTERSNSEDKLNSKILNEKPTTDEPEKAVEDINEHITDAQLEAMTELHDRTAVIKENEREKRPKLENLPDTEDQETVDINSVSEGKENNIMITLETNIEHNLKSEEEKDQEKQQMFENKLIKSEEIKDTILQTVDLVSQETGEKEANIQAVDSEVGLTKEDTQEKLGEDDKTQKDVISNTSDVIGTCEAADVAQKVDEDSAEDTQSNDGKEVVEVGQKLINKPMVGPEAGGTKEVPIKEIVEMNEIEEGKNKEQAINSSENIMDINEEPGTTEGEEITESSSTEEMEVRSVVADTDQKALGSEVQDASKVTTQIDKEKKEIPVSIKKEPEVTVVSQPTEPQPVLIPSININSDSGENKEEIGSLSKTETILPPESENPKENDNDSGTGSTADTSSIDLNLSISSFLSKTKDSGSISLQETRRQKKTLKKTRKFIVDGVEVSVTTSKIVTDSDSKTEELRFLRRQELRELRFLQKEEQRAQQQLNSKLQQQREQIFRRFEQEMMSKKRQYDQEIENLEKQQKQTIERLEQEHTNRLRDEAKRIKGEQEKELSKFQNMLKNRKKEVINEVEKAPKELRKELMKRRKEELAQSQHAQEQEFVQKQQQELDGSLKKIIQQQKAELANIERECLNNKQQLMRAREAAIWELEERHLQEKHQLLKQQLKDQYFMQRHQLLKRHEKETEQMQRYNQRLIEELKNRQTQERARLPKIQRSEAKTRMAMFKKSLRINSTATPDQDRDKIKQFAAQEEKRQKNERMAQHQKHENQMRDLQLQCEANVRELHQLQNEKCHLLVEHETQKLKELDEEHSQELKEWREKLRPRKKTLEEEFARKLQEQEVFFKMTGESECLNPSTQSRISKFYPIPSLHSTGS
Sequence of Ribosomal protein S6 kinase beta-1 (Homo sapiens) (P23443 whole entry, looked up, the tested form may be a part): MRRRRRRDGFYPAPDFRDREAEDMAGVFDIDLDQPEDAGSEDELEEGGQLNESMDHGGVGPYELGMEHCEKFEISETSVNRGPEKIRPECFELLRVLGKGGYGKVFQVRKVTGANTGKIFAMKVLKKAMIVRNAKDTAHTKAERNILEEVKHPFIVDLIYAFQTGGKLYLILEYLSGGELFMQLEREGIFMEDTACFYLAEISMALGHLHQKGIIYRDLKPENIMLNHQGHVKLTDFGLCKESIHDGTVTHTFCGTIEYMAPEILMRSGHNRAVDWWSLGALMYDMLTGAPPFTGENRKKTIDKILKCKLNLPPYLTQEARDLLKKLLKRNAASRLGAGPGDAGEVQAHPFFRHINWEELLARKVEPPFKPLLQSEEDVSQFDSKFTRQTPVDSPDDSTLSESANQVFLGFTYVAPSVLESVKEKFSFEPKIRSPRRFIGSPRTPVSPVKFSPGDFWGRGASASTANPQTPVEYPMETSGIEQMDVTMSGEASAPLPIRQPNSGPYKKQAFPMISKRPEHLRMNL
Sequence of Ribosomal protein S6 kinase alpha-6 (Homo sapiens) (Q9UK32 whole entry, the tested form may be a part): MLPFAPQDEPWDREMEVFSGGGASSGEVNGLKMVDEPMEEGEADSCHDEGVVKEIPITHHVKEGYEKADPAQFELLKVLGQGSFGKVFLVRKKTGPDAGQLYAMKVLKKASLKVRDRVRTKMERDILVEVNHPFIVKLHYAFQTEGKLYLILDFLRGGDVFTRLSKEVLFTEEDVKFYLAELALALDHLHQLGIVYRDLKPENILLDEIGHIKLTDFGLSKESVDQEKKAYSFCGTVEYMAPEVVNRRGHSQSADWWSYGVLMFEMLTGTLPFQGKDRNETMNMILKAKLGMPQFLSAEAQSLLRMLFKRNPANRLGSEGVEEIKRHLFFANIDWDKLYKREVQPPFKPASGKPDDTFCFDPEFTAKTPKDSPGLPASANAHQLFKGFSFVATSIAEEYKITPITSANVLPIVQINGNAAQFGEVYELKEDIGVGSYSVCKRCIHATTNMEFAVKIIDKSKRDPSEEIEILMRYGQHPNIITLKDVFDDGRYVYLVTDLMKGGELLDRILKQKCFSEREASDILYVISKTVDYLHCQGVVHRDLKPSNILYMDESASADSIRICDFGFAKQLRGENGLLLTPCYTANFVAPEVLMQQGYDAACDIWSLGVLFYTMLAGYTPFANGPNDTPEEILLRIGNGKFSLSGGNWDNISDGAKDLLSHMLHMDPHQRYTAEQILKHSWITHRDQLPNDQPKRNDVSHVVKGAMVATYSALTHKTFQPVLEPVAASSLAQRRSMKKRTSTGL
Sequence of Non-receptor tyrosine-protein kinase TYK2 (Homo sapiens) (P29597 whole entry, the tested form may be a part): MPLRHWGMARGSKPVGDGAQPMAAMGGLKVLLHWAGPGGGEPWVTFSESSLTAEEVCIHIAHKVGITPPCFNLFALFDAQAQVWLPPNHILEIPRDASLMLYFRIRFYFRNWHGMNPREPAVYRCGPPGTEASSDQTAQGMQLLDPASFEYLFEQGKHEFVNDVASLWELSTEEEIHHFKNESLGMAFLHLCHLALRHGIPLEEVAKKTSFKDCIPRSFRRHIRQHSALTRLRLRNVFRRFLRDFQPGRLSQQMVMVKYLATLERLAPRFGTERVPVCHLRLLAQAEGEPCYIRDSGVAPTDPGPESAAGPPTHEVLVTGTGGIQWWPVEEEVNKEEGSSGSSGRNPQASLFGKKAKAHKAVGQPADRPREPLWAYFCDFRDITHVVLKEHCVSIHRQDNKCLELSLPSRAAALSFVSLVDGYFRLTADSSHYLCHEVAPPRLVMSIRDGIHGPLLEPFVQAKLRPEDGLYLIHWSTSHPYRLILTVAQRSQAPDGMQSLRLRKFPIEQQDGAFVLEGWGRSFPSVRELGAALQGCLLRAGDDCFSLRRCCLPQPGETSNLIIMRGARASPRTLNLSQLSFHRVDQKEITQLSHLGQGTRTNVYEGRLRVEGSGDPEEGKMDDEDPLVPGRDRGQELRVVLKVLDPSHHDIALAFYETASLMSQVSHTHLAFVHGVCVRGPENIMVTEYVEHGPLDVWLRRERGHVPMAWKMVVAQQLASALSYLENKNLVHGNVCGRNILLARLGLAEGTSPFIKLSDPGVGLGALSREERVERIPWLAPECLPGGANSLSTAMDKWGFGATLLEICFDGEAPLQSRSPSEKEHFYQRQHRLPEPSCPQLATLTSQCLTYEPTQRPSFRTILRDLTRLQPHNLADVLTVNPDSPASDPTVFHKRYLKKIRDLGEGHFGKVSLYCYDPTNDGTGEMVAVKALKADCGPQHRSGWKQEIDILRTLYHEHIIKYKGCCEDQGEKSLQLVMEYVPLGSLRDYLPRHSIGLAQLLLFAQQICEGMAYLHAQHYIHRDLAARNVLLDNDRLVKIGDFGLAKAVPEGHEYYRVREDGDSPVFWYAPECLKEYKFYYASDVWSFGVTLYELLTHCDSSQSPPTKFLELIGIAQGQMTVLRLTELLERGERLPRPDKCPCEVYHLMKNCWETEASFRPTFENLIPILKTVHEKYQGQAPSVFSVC
Sequence of Serine/threonine-protein kinase 32A (Homo sapiens) (Q8WU08 whole entry, the tested form may be a part): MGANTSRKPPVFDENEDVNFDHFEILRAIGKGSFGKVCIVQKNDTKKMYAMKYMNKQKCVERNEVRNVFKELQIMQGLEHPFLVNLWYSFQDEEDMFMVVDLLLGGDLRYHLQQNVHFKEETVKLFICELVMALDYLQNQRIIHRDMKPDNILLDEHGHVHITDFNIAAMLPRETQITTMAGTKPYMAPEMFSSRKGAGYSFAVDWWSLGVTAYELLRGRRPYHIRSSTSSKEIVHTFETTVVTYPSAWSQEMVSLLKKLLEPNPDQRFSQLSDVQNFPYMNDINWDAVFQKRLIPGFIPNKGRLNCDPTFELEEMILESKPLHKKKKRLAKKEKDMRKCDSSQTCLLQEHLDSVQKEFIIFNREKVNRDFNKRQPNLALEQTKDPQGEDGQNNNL

CCOc1cc(C(=O)N2CCC(N3CCN(C)CC3)CC2)ccc1Nc1ncc2c(n1)N(C1CCCC1)c1ccccc1C(=O)N2C
100%: all assays above

COc1cc(N2CCC(N3CCN(C)CC3)CC2)ccc1Nc1ncc2c(n1)N(C)c1ccccc1C(=O)N2C
98%: [7]
82%: [3]
92%: [9]
39%: [12]
84%: [10]
80%: [13]
100%: all other assays above

COc1cc(C(=O)N2CCC(N3CCN(C)CC3)CC2)ccc1Nc1ncc2c(n1)N(C1CCCC1)c1ccccc1C(=O)N2C
100%: all assays above

— ChEMBL document CHEMBL5678810
